Key:
[1] = tested on: p21^Waf1 and phosphorylated PDH levels; assay: Immunoblot assay of p21Waf1 and phosphorylated PDH; format: cell-based, human
Description: (§1) HepG2 cells treated with each compound (5 μM, 24 hr) were co-stained with the mitochondrial marker MitoTracker (green). Boxed regions show co-localization of the test compounds and probe within the mitochondria. […] Experiments were carried out in triplicate and the data shown represent means±SD. **p<0.01. […] HepG2 cells were incubated with BNPP (100 μM) for 2 hr prior to C1 treatment. **p<0.01. […] Cleaved caspase-3 and PARP-1 levels were examined to assess apoptosis induction. C, cleaved.
(§2) Immunoblot analyses were performed using antibodies specific for phosphorylated serine 293 PDH-EI (ab92696), p21^Waf1 (sc-397), cleaved PARP (5625), cleaved caspase-3 (9664), COX-IV (4850), and Cytochrome c (4280). They were purchased from Abcam (Cambridge, UK), Santa Cruz Biotechnology (Texas, USA) or Cell Signaling Technology (Massachusetts, USA). Anti-tubulin antibodies were obtained from Sigma-Aldrich (St. Louis, USA). Briefly, cells were washed twice in ice-cold PBS and lysed in a radioimmunoprecipitation assay buffer containing 50 mM Tris/HCl (pH 7.5), 150 mM NaCl, 0.1% sodium dodecyl sulfate (SDS), 1% Triton X-100, 1% sodium deoxycholate, and protease inhibitor mixture. After sonification, the lysate was centrifuged, and the supernatant was recovered and loaded onto a 12% SDS-polyacrylamide gel for electrophoresis.

MCF7/Dox cells [2] = assay: Intracellular ATP, lactate levels and glucose uptake; format: cell-based, human
Description: (§3) Fluorescence intensities were measured with SpectraMAX 13. Data represent means±SD. **p<0.01. […] Data represent means±SD. **[…]. […] Data represent the mean±SD (n=3 experimental replicates). *p<0.05, **p<0.01. […] MCF7/Dox cells were treated with C1 or C3 as indicated, and the cytosolic (C) and mitochondrial (M) fractions were subjected to immunoblot assay. COX-IV and tubulin were used as markers for the mitochondria and cytosol fractions, respectively.
Intracellular ATP levels were measured using an ATP Bioluminescence Assay Kit HSII (Roche Applied Science). Briefly, after the indicated treatment times for the test compound in question, cells were lysed with boiling lysis reagent and the supernatant was collected. […] of luciferin/Luciferase reagents. Luminescence was measured using Luminoskan Ascent (Thermo Scientific). Results were normalized to cell number. Intracellular L(+)-lactate level was measured using a lactate assay kit (BioVision). Cells were suspended with lactate assay buffer and incubated in the presence of the reaction mixture for 30 min. The lactate was quantified by measuring the absorbance at 570 nm using a Bio-Rad 680 microplate reader (Bio-Rad). For the glucose uptake assay, 2×10^5 cells were incubated in the presence of 20 mmol/L of 2-NBDG (2-[N-(7-nitrobenz-2-oxa-1,3-diazol-4-yl)amino]-2-deoxy-d-glucose; N13195; Invitrogen) for 2 h. The cells were re-suspended in cold growth medium and stained with propidium iodide. Samples were maintained on ice and analyzed via flow cytometry (Becton Dickinson).

MCF7/Dox cells [3] = assay: Cytochrome c release from mitochondria, immunoblot; format: cell-based, human
Description: as §3
as §2, with “electrophoresis. […]” for “electrophoresis.”

HepG2 cells [4] = assay: Immunoblot assay of cleaved caspase-3 and PARP-1; format: cell-based, human
Description: as §2

MCF7 and MCF7/Dox cells = assay: Mitochondrial localization in MCF7 and MCF7/Dox cells; format: cell-based, human
Excerpt: Mito-tracker (green) was utilized to show the mitochondria;

MCF7/Dox cells [5] = assay: Cell death assay, Annexin V flow cytometry; format: cell-based, human; details: 5 μM
Description: MCF-7/Dox cells (8×10^5 cells) were seeded in 60 mm dishes and cultured for 24 h. The cells were treated with 5 μM compound C1, C3, DCA and/or doxorubicin for 48 h. After washing and centrifugation, the harvested cells were stained with the Annexin V/PI Apoptosis Detection kit (BD Biosciences, USA) for 1 min at room temperature. The apoptotic cells were then quantified on a FACSCalibur™ flow cytometer and analyzed using the CELLQUEST™ software (BD Biosciences).

MCF7 and MCF7/Dox tumors = assay: In vivo and ex vivo fluorescent imaging; details: mice bearing MCF7 and MCF7/Dox tumors
Description: To assess tumor target specificity and the organ distribution of C1 in vivo and ex vivo, MCF7 and MCF7/Dox cells were injected subcutaneously into mice. When tumor growth reached a detectable size, the mice were treated with C1 (15 mg/kg/d), doxorubicin (2 mg/Kg/d)+DCA (50 mg/Kg/d), or vehicle (DMSO) by i.v. injection once every 4 days for 30 days. After 15 days of treatment, the animals were euthanized via CO2 asphyxiation. The xenograft tumors were excised and photographed. In vivo fluorescence images of the mice were recorded and quantified using a Maestro2 instrument (excitation and emission wavelengths: 500 and 650 nm, respectively). The fluorescence images and auto-fluorescence were then deconvoluted using the software provided with the instrument (Maestro software ver.2.4, CRi, Woburn, Mass., USA) using the multiexcitation spectral analysis function.

[6] = Cell fractionation assay, mitochondria-to-nucleus trafficking; format: cell-based; details: after treatment with C1
Description: as §3
Separation of cytosolic and mitochondrial fractions was performed using the Mitochondria Isolation Kit (Thermo Scientific, USA). Briefly, the cells were washed with cold PBS and lysed by 5-cycle freeze-thawing in Mitochondria Isolation Reagent A buffer, containing 10 mM phenylmethylsulfonyl fluoride (PMSF). After incubation on ice for 10 min and the addition of Mitochondria Isolation Reagent B buffer, the lysates were centrifuged at 700×g for 10 min following inverting by treating with Mitochondria Isolation Reagent C buffer. The supernatant was transferred to a new tube, centrifuged at 12 000×g for 15 min at 4° C., and collected as the cytosolic fraction. After adding […] of Mitochondria Isolation Reagent C, the pellet was centrifuged at 12 000×g for 5 min and collected as the mitochondrial fraction.

HepG2 cells [7] = assay: Confocal intracellular localization with MitoTracker; format: cell-based, human; details: HepG2, 5 μM, 24 hr
Description: as §1
Cells were seeded on glass chamber slides (Nalgene Nunc) followed by probe treatment. After 48 h, the cells were fixed with 4% formaldehyde, and blocked with 2% bovine serum albumin-PBS for 30 min. The mitochondria were stained using MitoTracker™ Green FM (Invitrogen, USA) for 30 min. Fluorescent images were obtained using a confocal laser scanning microscope (Carl Zeiss MicroImaging, Inc., Germany).

MCF7/Dox cells [8] = assay: Colony formation assay; format: cell-based, human; details: 10 days
Description: as §3
(§4) Cells were seeded in 24 well plates at 2×10^5 cells per well and were allowed to adhere for at least 24 h, growth medium was replaced with medium containing C1 or its analogues at the indicated concentrations and times, and cell viability was assessed via the WST-1 assay (Roche Diagnostics, Laval, QC, Canada). For the colony formation assay, cells were seeded in 6-well plates. After 24 h, cells were maintained in the presence of each probe or vehicle dimethyl sulfoxide (DMSO) for 10 days. Colonies were fixed with methanol for 10 min and stained with 0.05% crystal violet in 20% ethanol.

HepG2 cells [9] = assay: WST cell viability assay; format: cell-based, human
Description: as §1, §4

WST cell viability assay = format: cell-based, human; details: human; HepG2 cells, WST assay; read-out: IC50 (cytotoxicity)
Description: as §1, §4

MCF7 cells = assay: Colony formation assay; format: cell-based, human; details: 10 days
Description: as §4

## COc1cccc2c1C(=O)c1c(O)c3c(c(O)c1C2=O)C[C@@](O)(C(=O)CO)C[C@@H]3OC1C[C@H](NC(=O)OC(Cc2cn(CCCCCC[P+](c3ccccc3)(c3ccccc3)c3ccccc3)nn2)c2ccc(NC(=O)C(Cl)Cl)cc2)[C@H](O)[C@H](C)O1.[Br-] (stereo partly shown) [C1]
[1]
  effect on p21^Waf1 and phosphorylated PDH levels: up- and downregulation of p21^Waf1 and phosphorylated PDH levels
MCF7/Dox cells [2]
  glucose uptake: decreased glucose uptake
  intracellular ATP levels: lowered intracellular ATP levels
  intracellular lactate levels: dose-dependent reduction of intracellular lactate levels
MCF7/Dox cells [3]
  cytochrome c release, cleavage of caspase-3 and PARP-1, decrease in cell viability: induces cytochrome c release from the mitochondria
HepG2 cells [4]
  apoptosis-inducing activity (cleaved caspase-3 and PARP-1): greater apoptosis-inducing activity than C2
MCF7 and MCF7/Dox cells
  mitochondrial localization: exhibited mitochondrial localization in both MCF7 and MCF7/Dox cells
MCF7/Dox cells [5]
  apoptosis by Annexin V flow cytometry: promotes both early and late apoptosis
MCF7 and MCF7/Dox tumors
  tumor specificity of Dox accumulation (fluorescence imaging of mice and dissected organs): highly tumor-specific accumulation of Dox
[6]
  time for released Dox to translocate to the nucleus: approximately 2 hr
HepG2 cells [7]
  intracellular (mitochondrial) localization: located predominantly within the mitochondria
MCF7/Dox cells [8]
  colony-forming ability: strong inhibitory effect
HepG2 cells [9]; HepG2, BNPP 100 μM 2 hr before treatment
  effect of BNPP pretreatment on C1-driven decrease in cell viability: strongly attenuated
HepG2 cells [9]; compared with C3-C6
  cell death in cell-survival assays: greater cell death in a dose-dependent manner
WST cell viability assay
  IC50: 22.1 ± 0.325 µM
MCF7 cells
  colony-forming ability: strong inhibitory effect
